Earlier results as cited in patent US10548837B1, “Topical montelukast for treatment of atopic dermatitis” (TARO PHARMACEUTICAL INDUSTRIES LTD., priority 2016, dated 2020).

Biological target: T1, cysLT1 receptor (Homo sapiens, UniProt Q9Y271)
T1 sequence (Q9Y271 1-337): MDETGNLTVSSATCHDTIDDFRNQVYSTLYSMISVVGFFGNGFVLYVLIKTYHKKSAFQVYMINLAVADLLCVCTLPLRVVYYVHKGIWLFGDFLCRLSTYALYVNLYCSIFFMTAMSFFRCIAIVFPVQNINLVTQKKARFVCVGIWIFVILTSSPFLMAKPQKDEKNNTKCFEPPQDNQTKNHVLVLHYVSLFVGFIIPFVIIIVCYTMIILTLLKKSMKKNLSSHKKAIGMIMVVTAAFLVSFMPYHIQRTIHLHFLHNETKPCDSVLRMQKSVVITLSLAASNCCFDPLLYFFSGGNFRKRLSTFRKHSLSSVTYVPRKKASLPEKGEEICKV
Conditions: background statement

For `COc1cc(C(=O)NS(=O)(=O)c2ccccc2C)ccc1Cc1cn(C)c2ccc(NC(=O)OC3CCCC3)cc12` [zafirlukast], the “binding to the cysLT1 receptor” value is given as “high-affinity binding”.
